According to patent publication US8324245B2, “Quinoline derivative and quinazoline derivative inhibiting self-phosphorylation of hepatocytus proliferator receptor, and medicinal composition containing the same” (Kyowa Hakko Kirin Co., Ltd., priority 2001, dated 2012):

Target: T1, met (HGF receptor) in human gastric cancer cells MKN45 (Homo sapiens, UniProt P08581)
T1 construct: endogenous in cells; host or cells: MKN45 human gastric cancer cells
Assay: Inhibitory activity against met-autophosphorylation using ELISA method (2), MKN45 cells, HGF-independent
Assay type: cell-based
How it was run: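 MKN45 cells, 3×10^4 per well in RPMI with 0.1% FCS overnight, were exposed to compound in DMSO for 1 h at 37 °C without HGF. Lysates were captured on anti-phosphotyrosine (PY20) plates, Met detected with anti-Met and peroxidase secondary antibody, absorbance at 450 nm.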

T1 sequence (P08581 25-1390): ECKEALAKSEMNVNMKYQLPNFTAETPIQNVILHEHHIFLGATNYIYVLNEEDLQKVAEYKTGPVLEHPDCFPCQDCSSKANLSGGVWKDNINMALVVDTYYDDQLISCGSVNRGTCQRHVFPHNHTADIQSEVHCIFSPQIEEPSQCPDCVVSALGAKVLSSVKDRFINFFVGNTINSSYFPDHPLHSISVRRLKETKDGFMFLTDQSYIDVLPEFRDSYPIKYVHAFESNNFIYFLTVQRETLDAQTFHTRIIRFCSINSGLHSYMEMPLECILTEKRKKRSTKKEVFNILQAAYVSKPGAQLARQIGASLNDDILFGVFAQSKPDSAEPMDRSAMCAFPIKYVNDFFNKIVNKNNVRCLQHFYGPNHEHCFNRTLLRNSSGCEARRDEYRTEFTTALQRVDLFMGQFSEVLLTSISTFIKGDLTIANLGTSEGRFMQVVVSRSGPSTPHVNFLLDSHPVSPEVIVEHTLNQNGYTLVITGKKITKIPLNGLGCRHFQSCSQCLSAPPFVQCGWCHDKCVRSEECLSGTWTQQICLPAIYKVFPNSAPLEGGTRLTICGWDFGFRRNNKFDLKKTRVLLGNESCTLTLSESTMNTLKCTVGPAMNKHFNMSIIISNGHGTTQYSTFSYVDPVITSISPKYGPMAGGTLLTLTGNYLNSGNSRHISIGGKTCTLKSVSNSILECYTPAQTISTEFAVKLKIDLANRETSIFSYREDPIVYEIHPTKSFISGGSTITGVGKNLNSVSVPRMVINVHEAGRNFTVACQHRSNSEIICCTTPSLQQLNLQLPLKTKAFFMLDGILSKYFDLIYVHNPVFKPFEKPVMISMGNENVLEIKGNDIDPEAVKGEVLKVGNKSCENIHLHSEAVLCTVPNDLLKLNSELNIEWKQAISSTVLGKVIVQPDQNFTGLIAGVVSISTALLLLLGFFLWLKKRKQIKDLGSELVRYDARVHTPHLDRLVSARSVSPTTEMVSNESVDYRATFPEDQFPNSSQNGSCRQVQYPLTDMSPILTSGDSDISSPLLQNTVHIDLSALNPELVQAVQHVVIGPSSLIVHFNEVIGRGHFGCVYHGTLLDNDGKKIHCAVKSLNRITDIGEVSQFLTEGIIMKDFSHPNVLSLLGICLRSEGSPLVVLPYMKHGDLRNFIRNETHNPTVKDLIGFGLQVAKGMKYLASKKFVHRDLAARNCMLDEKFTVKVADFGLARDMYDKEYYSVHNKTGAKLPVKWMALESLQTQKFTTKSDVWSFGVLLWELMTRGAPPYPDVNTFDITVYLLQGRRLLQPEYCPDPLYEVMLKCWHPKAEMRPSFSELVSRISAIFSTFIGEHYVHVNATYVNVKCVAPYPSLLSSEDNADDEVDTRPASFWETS

| SMILES | IC50 |
| --- | --- |
| COc1cc2nccc(Oc3ccc(NC(=O)NC(=O)Cc4ccc(F)c(F)c4)c(F)c3)c2cc1OC [Example 140, 1-[2-(3,4-difluorophenyl)acetyl]-3-[4-(6,7-dimethoxyquinolin-4-yloxy)-2-fluorophenyl]urea] | 0.229 µM |
| COc1cc2nccc(Oc3ccc(NC(=S)NC(=O)CCSC)cc3F)c2cc1OC [Example 147, 1-[4-(6,7-dimethoxyquinolin-4-yloxy)-3-fluorophenyl]-3-(3-methylsulfanylpropionyl)thiourea] | 1.17 µM |
| COc1cc2nccc(Oc3ccc(NC(=S)NC(=O)Cc4ccccc4C)cc3Cl)c2cc1OC [Example 149, 1-[3-chloro-4-(6,7-dimethoxyquinolin-4-yloxy)phenyl]-3-(2-o-tolylacetyl)thiourea] | 0.236 µM |
| COc1cc2nccc(Oc3ccc(NC(=S)NC(=O)Cc4ccccc4F)cc3)c2cc1OC [Example 151, 1-[4-(6,7-dimethoxyquinolin-4-yloxy)phenyl]-3-[2-(2-fluorophenyl)acetyl]thiourea] | 0.256 µM |
| COc1cc2nccc(Oc3ccc(NC(=S)NC(=O)Cc4ccccc4F)cc3Cl)c2cc1OC [Example 152, 1-[3-chloro-4-(6,7-dimethoxyquinolin-4-yloxy)phenyl]-3-[2-(2-fluorophenyl)acetyl]thiourea] | 0.248 µM |
| COc1ccccc1CC(=O)NC(=S)Nc1ccc(Oc2ccnc3cc(OC)c(OC)cc23)cc1 [Example 153, 1-[4-(6,7-dimethoxyquinolin-4-yloxy)phenyl]-3-[2-(2-methoxyphenyl)acetyl]thiourea] | 0.232 µM |
| COc1cc2nccc(Oc3ccc(NC(=S)NC(=O)Cc4ccccc4[N+](=O)[O-])cc3)c2cc1OC [Example 155, 1-[4-(6,7-dimethoxyquinolin-4-yloxy)phenyl]-3-[2-(2-nitrophenyl)acetyl]thiourea] | 0.982 µM |
| COc1cc2nccc(Oc3ccc(NC(=S)NC(=O)Cc4ccccc4[N+](=O)[O-])cc3Cl)c2cc1OC [Example 156, 1-[3-chloro-4-(6,7-dimethoxyquinolin-4-yloxy)phenyl]-3-[2-(2-nitrophenyl)acetyl]thiourea] | 0.373 µM |
| COc1cc2nccc(Oc3ccc(NC(=S)NC(=O)COc4ccccc4)cc3Cl)c2cc1OC [Example 157, 1-[3-chloro-4-(6,7-dimethoxyquinolin-4-yloxy)phenyl]-3-(2-phenoxyacetyl)thiourea] | 0.482 µM |
| CCOCCC(=O)NC(=S)Nc1ccc(Oc2ccnc3cc(OC)c(OC)cc23)c(Cl)c1 [Example 159, 1-[3-chloro-4-(6,7-dimethoxyquinolin-4-yloxy)phenyl]-3-(3-ethoxypropionyl)thiourea] | 0.585 µM |
| COc1cc2nccc(Oc3ccc(NC(=S)NC(=O)c4ccc(C)s4)cc3)c2cc1OC [Example 160, 1-[4-(6,7-dimethoxyquinolin-4-yloxy)phenyl]-3-(5-methylthiophen-2-carbonyl)thiourea] | 1.63 µM |
| COc1cc2nccc(Oc3ccc(NC(=S)NC(=O)Cc4cccc(F)c4)cc3)c2cc1OC [Example 164, 1-[4-(6,7-dimethoxyquinolin-4-yloxy)phenyl]-3-[2-(3-fluorophenyl)acetyl]thiourea] | 0.242 µM |
| CCOCCC(=O)NC(=S)Nc1ccc(Oc2ccnc3cc(OC)c(OC)cc23)c(F)c1 [Example 165, 1-[4-(6,7-dimethoxyquinolin-4-yloxy)-3-fluorophenyl]-3-(3-ethoxypropionyl)thiourea] | 0.495 µM |
| CCCCOCC(=O)NC(=S)Nc1ccc(Oc2ccnc3cc(OC)c(OC)cc23)c(F)c1 [Example 167, 1-(2-butoxyacetyl)-3-[4-(6,7-dimethoxy-quinolin-4-yloxy)-3-fluorophenyl]thiourea] | 0.259 µM |

The remaining compounds from weak to strong by IC50, led by results:

| IC50 | SMILES |
| --- | --- |
| 3.59 µM | COc1cc2nccc(Oc3ccc(NC(=S)NC(=O)C4CCCC4)c(F)c3)c2cc1OC [Example 143, 1-cyclopentanecarbonyl-3-[4-(6,7-dimethoxy-quinolin-4-yloxy)-2-fluorophenyl]thiourea] |
| 2.48 µM | COc1cc2nccc(Oc3ccc(NC(=S)NC(=O)CCCCl)cc3F)c2cc1OC [Example 148, 1-(4-chloro-butyryl)-3-[4-(6,7-dimethoxy-quinolin-4-yloxy)-3-fluorophenyl]thiourea] |
| 1.21 µM | COc1cc2nccc(Oc3ccc(NC(=S)NC(=O)c4ccccc4Br)cc3F)c2cc1OC [Example 146, 1-(2-bromobenzoyl)-3-[4-(6,7-dimethoxy-quinolin-4-yloxy)-3-fluorophenyl]thiourea] |
| 0.699 µM | COc1cccc(C(=O)NC(=S)Nc2ccc(Oc3ccnc4cc(OC)c(OC)cc34)c(F)c2)c1 [Example 144, 1-[4-(6,7-dimethoxyquinolin-4-yloxy)-3-fluorophenyl]-3-(3-methoxybenzoyl)thiourea] |
| 0.465 µM | COc1cc2nccc(Oc3ccc(NC(=S)NC(=O)[C@H](C)c4ccccc4)cc3)c2cc1OC [Example 158, 1-[4-(6,7-dimethoxyquinolin-4-yloxy)phenyl]-3-(2-phenylpropionyl)thiourea] |
| 0.364 µM | COc1cc2nccc(Oc3ccc(NC(=S)NC(=O)c4cccc(C(F)(F)F)c4)cc3)c2cc1OC [Example 145, 1-[4-(6,7-dimethoxyquinolin-4-yloxy)phenyl]-3-(3-trifluoromethyl-benzoyl)thiourea] |
| 0.336 µM | COc1cc2nccc(Oc3ccc(NC(=O)NC(=O)Cc4cc(F)cc(F)c4)c(F)c3)c2cc1OC [Example 141, 1-[2-(3,5-difluorophenyl)acetyl]-3-[4-(6,7-dimethoxyquinolin-4-yloxy)-2-fluorophenyl]urea] |
| 0.318 µM | COc1cc2nccc(Oc3ccc(NC(=S)NC(=O)CC4CCCCC4)c(F)c3)c2cc1OC [Example 166, 1-(2-cyclohexylacetyl)-3-[4-(6,7-dimethoxy-quinolin-4-yloxy)-2-fluorophenyl]thiourea] |
| 0.285 µM | COc1cc2nccc(Oc3ccc(NC(=O)NC(=O)Cc4cc(F)cc(F)c4)cc3F)c2cc1OC [Example 142, 1-[2-(3,5-difluorophenyl)acetyl]-3-[4-(6,7-dimethoxyquinolin-4-yloxy)-3-fluorophenyl]urea] |
| 0.284 µM | COc1cc2nccc(Oc3ccc(NC(=O)NC(=O)Cc4cccc(F)c4F)c(F)c3)c2cc1OC [Example 138, 1-[2-(2,3-difluorophenyl)acetyl]-3-[4-(6,7-dimethoxyquinolin-4-yloxy)-2-fluorophenyl]urea] |
| 0.246 µM | COc1cc2nccc(Oc3ccc(NC(=S)NC(=O)CCC4CCCC4)cc3)c2cc1OC [Example 161, 1-(3-cyclopentylpropionyl)-3-[4-(6,7-dimethoxyquinolin-4-yloxy)phenyl]thiourea] |
| 0.243 µM | COc1cc2nccc(Oc3ccc(NC(=O)NC(=O)Cc4cccc(F)c4F)cc3F)c2cc1OC [Example 139, 1-[2-(2,3-difluorophenyl)acetyl]-3-[4-(6,7-dimethoxyquinolin-4-yloxy)-3-fluorophenyl]urea] |
| 0.21 µM | COc1cc2nccc(Oc3ccc(NC(=S)NC(=O)Cc4ccccc4)c(C)c3)c2cc1OC [Example 162, 1-[4-(6,7-dimethoxyquinolin-4-yloxy)-2-methylphenyl]-3-phenylacetylthiourea] |
| 0.202 µM | COc1cc2nccc(Oc3cc(C)c(NC(=S)NC(=O)Cc4ccccc4)cc3C)c2cc1OC [Example 163, 1-[4-(6,7-dimethoxyquinolin-4-yloxy)-2,5-dimethylphenyl]-3-phenylacetylthiourea] |
